Measured values: the supplement of paper PMC10307832

Experiments:
Test in all cases: relative viability (nuclei count vs DMSO), 5 days (fraction); higher = more cells survive
[1] = compound: CN1CCC(CC1)OC2=CC(=C(C=C2)NC3=NC=C4C(=N3)N(C(=O)N4C)C5CCCC5)OC [AZ3146] + CCNC(=O)c1noc(-c2cc(C(C)C)c(O)cc2O)c1-c1ccc(CN2CCOCC2)cc1 [Luminespib] (partner 0.01 µM)
Method in brief: (§1)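 Lung cancer cell lines were pin-tool dosed in 1536-well plates on the day after seeding, with either a lone drug or a fixed anchor-drug dose plus five library-drug doses (not always all listed) in √10 steps. Nuclei were counted on 4× images after 5 days. Relative viability is the ratio of treated-well to vehicle-well nuclei counts, with each value a median of duplicate plates.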

[2] = compound: CN1CCC(CC1)OC2=CC(=C(C=C2)NC3=NC=C4C(=N3)N(C(=O)N4C)C5CCCC5)OC [AZ3146] + COc1cc2c(Oc3ccc(NC(=O)C4(C(=O)Nc5ccc(F)cc5)CC4)cc3F)ccnc2cc1OCCCN1CCOCC1 [Foretinib] (partner 0.25 µM)
Method in brief: as §1

[3] = compound: CN1CCC(CC1)OC2=CC(=C(C=C2)NC3=NC=C4C(=N3)N(C(=O)N4C)C5CCCC5)OC [AZ3146] + CS(=O)(=O)N1CCN(Cc2cc3nc(-c4cccc5[nH]ncc45)nc(N4CCOCC4)c3s2)CC1 [Pictilisib] (partner 1 µM)
Method in brief: as §1

[4] = compound: CN1CCC(CC1)OC2=CC(=C(C=C2)NC3=NC=C4C(=N3)N(C(=O)N4C)C5CCCC5)OC [AZ3146] + C[C@]1(O)C[C@@H](c2nc(-c3ccc4ccc(-c5ccccc5)nc4c3)c3c(N)nccn32)C1 [Linsitinib] (partner 1 µM)
Method in brief: as §1

UMC-11
relative viability ([1]; first compound 0.08 µM): 0.959
relative viability ([1]; first compound 0.253 µM): 1.2
relative viability ([1]; first compound 0.8 µM): 1.09
relative viability ([1]; first compound 2.53 µM): 0.86
relative viability ([1]; first compound 8 µM): 0.256
relative viability ([2]; first compound 0.08 µM): 0.959
relative viability ([2]; first compound 0.253 µM): 1.04
relative viability ([2]; first compound 0.8 µM): 1.11
relative viability ([2]; first compound 2.53 µM): 0.813
relative viability ([2]; first compound 8 µM): 0.261
relative viability ([3]; first compound 0.08 µM): 0.698
relative viability ([3]; first compound 0.253 µM): 0.99
relative viability ([3]; first compound 0.8 µM): 0.706
relative viability ([3]; first compound 2.53 µM): 0.802
relative viability ([3]; first compound 8 µM): 0.513
relative viability ([4]; first compound 0.08 µM): 0.989
relative viability ([4]; first compound 0.253 µM): 1.05
relative viability ([4]; first compound 0.8 µM): 0.992
relative viability ([4]; first compound 2.53 µM): 0.922
relative viability ([4]; first compound 8 µM): 0.577
